Molecules are shown by their SMILES. The source made the active and inactive calls. The calls are words filed in the database; no cut-off is given here.

The values that follow come from ChEMBL document CHEMBL1127372, “The discovery and structure-activity relationships of 1,2,3,6-tetrahydro-4-phenyl-1-[(arylcyclohexenyl)alkyl]pyridines. Dopamine autoreceptor agonists and potential antipsychotic agents” (J Med Chem, 1994).

Assay [1] has as its system Rattus norvegicus. As to the kind of experiment: Effect on striatal DOPA synthesis at 10 mg/kg dose after GBL intraperitoneal dose of 750 mg/kg in rat corpus striatum. Format: functional.
Assay [2] addresses T1, D(2) dopamine receptor (Rattus norvegicus, UniProt P61169). Put plainly: In vitro inhibition of [3H]spiperone binding to Dopamine D2 receptor in rat striatum. Format: tissue-based.
Assay [3] deals with Mus musculus. Put plainly: Tested for inhibition of mouse exploratory locomotory activity (LMA); value ranges from […]-[…] mg/Kg. Format: functional.
Assay [4] has as its system Rattus norvegicus. Put plainly: Tested for reversal of DOPA accumulation in rat striatum after administration of compound at 10 mg/Kg dose for 60 min and GBL 750 mg/Kg ip; value ranges from 0.14-0.59. Format: functional.
Assay [5] relates to Mus musculus. Put plainly: Tested for the inhibition of locomotor activity in mice intraperitoneally; value ranges from 0.14-0.9 mg/Kg. Format: functional. The following applies: ip.
Assay [6] relates to Saimiri sciureus (squirrel monkey). Put plainly: Tested for inhibition of conditioned avoidance in squirrel monkeys; stim indicates stimulation (increase in response rate) at 0.156 and 0.312 mgkg sc.
Assay [7] has as its system Rattus norvegicus. Put plainly: Compound was tested for the decrease of DA neuron firing rate in rats at 0.25 mg/Kg ip dose. Format: functional. Set-up: scale not given: the % may be the effect or the level left.
The species named for assay [8] is Rattus norvegicus. Put plainly: animal or person. The following applies: ip.
Assay [9] relates to Mus musculus. Put plainly: Tested for inhibition of mouse explanatory locomotory activity; value ranges from […]-[…] mg/Kg. Format: functional.
The nature of assay [10]: Tested for inhibition of conditioned avoidance in squirrel monkeys; value ranges from 0.4-0.6 mg/Kg. The following applies: Saimiri.
In assay [11] the test system is Rattus norvegicus. As to the kind of experiment: Tested for the inhibition of locomotor activity in rats orally; value ranges from 0.21-0.3 mg/Kg. As to conditions: po.
Assay [12] is filed under the species Mus musculus. Put plainly: animal or person. As to conditions: ip.
The species entered for assay [13] is Rattus norvegicus. As to the kind of experiment: Tested for inhibition of rat exploratory locomotory activity (LMA). Format: functional.
The subject of assay [14] is Rattus norvegicus. As to the kind of experiment: Tested for inhibition of rat exploratory locomotory activity (LMA); value ranges from […]-[…] mg/Kg; value ranges from […]-[…] mg/Kg. Format: functional.
Assay [15] deals with Rattus norvegicus. Put plainly: Tested for inhibition of rat exploratory locomotory activity (LMA); value ranges from 12.5-24.7 mg/Kg. Format: functional.
Assay [16] concerns Mus musculus. Put plainly: Tested for the inhibition of locomotor activity in mice intraperitoneally; value ranges from 0.9-1.8 mg/Kg. Format: functional. The following applies: ip.
For assay [17], the system named is Rattus norvegicus. As to the kind of experiment: Tested for the inhibition of locomotor activity in rats intraperitoneally; value ranges from […]-[…] mg/Kg. Format: functional. As to conditions: ip.
Assay [18] relates to Rattus norvegicus. Put plainly: Tested for reversal of DOPA accumulation in rat striatum after administration of compound at 10 mg/Kg dose for 60 min and GBL 750 mg/Kg ip; value ranges from 2.05-4.46. Format: functional.
Assay [19] concerns Rattus norvegicus. Put plainly: Tested for reversal of DOPA accumulation in rat mesolimbic after administration of compound at 10 mg/Kg dose for 60 min and GBL 750 mg/Kg ip; value ranges from 0.19-0.47. Format: functional.
Assay [20] concerns the target T1, D(2) dopamine receptor.
Description: Tested for binding affinity towards rat striatal D2 receptor using [3H]spiperone as radioligand
Assay [21] deals with T1, D(2) dopamine receptor. Put plainly: Tested for binding affinity towards rat striatal D2 receptor using [3H]NPA as radioligand.
In assay [22] the test system is Rattus norvegicus. Put plainly: Tested for inhibition of rat exploratory locomotory activity (LMA); value ranges from […]-[…] mg/Kg. Format: functional.
Assay [23] is described as follows: Tested for inhibition of conditioned avoidance in squirrel monkeys; value ranges from 0.4-0.7 mg/Kg. Format: functional.
A further assay has as its target D(3) dopamine receptor (Homo sapiens, UniProt P35462).
The target in assay [24] is D(2) dopamine receptor (Homo sapiens, UniProt P14416).
Description: Tested for binding affinity towards human D2L receptor using [3H]spiperone as radioligand
The next assay addresses T2, D(4) dopamine receptor (Homo sapiens, UniProt P21917).
T2 sequence (P21917 whole entry): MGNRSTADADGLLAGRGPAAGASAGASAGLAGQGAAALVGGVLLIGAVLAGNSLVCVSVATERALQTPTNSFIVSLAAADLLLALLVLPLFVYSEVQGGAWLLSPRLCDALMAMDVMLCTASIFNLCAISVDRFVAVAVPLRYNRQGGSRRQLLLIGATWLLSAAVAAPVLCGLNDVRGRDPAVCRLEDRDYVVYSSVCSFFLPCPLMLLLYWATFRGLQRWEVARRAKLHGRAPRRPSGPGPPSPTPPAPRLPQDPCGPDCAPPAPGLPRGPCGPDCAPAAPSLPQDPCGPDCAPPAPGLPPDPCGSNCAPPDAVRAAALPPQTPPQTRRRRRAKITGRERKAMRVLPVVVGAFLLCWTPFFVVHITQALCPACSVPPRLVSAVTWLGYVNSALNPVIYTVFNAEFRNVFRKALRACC
As to the kind of experiment: Tested for binding affinity towards human Dopamine receptor D4.2 using [3H]spiperone as radioligand.

Another assay deals with D(1A) dopamine receptor (Rattus norvegicus, UniProt P18901). Put plainly: Tested for binding affinity towards rat striatal dopamine receptor D1 using [3H]-SCH- 23390 as radioligand.
In assay [25] the test system is Rattus norvegicus. Put plainly: Compound was tested for the decrease of DA neuron firing rate in rats at 2.5 mg/Kg ip dose. Format: functional.
Assay [26] deals with Mus musculus. Put plainly: Tested for inhibition of mouse exploratory locomotory activity (LMA); value ranges from 9.2-16 mg/Kg. Format: functional.
For assay [27], the system named is Rattus norvegicus. As to the kind of experiment: Tested for inhibition of rat exploratory locomotory activity (LMA); value ranges from 3.2-10.4 mg/Kg. Format: functional.
For assay [28], the species on record is Mus musculus. Put plainly: Tested for inhibition of mouse exploratory locomotory activity (LMA). Format: functional.
For assay [29], the system named is Mus musculus. As to the kind of experiment: Tested for inhibition of mouse exploratory locomotory activity (LMA); value ranges from 0.8-1.6 mg/Kg. Format: functional.

T1 sequence (P61169 whole entry): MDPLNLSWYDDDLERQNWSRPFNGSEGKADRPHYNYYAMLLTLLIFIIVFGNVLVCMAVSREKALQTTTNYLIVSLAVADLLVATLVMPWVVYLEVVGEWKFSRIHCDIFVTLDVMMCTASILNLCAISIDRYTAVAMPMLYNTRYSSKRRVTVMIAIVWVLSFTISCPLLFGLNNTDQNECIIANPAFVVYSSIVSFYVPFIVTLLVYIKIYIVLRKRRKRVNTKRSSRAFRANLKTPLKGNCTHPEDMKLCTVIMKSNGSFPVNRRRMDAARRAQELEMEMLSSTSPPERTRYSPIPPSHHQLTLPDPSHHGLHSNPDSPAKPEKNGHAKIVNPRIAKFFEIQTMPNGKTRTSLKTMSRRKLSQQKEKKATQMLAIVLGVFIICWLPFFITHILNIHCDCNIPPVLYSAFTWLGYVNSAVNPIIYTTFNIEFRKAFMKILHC
Chain of D(3) dopamine receptor (P35462 whole entry): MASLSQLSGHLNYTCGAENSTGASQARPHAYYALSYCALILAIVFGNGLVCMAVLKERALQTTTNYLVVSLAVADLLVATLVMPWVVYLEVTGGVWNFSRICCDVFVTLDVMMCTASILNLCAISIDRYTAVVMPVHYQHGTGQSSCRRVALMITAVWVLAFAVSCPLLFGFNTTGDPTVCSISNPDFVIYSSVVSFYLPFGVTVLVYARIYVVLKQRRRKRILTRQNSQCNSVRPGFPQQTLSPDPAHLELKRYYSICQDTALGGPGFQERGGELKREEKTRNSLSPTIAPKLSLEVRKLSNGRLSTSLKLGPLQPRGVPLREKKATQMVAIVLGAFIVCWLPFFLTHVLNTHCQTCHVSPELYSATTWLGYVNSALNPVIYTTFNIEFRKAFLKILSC
Chain of D(1A) dopamine receptor (P18901 whole entry): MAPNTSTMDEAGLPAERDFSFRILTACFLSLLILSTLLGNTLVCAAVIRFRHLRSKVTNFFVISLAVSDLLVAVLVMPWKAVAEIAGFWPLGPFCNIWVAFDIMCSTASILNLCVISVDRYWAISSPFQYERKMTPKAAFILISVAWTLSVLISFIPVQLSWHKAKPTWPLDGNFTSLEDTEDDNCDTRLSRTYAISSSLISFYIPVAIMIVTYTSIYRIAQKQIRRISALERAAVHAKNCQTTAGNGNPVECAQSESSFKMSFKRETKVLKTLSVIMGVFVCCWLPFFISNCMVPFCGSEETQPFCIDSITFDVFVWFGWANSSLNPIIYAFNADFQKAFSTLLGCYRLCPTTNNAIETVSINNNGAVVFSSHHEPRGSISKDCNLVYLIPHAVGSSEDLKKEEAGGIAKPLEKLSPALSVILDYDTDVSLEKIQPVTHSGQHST
Chain of D(2) dopamine receptor (Homo sapiens, UniProt P14416) (P14416 whole entry): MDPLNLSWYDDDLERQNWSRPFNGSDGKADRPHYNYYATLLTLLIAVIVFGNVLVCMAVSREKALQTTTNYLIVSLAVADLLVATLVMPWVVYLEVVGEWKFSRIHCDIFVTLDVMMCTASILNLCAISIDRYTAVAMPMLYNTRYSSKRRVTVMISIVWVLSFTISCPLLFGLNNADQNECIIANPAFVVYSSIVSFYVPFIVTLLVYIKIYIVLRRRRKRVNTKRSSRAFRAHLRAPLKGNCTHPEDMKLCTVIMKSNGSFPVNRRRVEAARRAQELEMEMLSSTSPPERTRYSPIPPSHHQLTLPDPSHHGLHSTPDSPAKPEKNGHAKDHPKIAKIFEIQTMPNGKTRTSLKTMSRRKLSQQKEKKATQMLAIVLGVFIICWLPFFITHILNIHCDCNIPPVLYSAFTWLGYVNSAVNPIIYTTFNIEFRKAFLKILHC
Description for D(3) dopamine receptor: Tested for binding affinity towards human D3 receptor using [3H]spiperone as radioligand

`C1=C(c2ccccc2)CC(CN2CCN(c3ccccn3)CC2)CC1` (configuration not stated): the Effect in the assay with Rattus norvegicus [1] is listed as -61%. Moreover, the half-inhibitory concentration (IC50) (commonly the midpoint of a concentration-inhibition curve) at D(2) dopamine receptor [2] was 141 nM. In the assay on Mus musculus [3], the median effective dose (ED50) – broadly, the dose that gives a 50% effect, or the effect in half of the subjects – came to 0.8 mg/kg.
In the case of `C1=C(c2ccccc2)CCN(CCC2CCC=C(c3ccccc3)C2)C1` (configuration not stated), in the assay on Rattus norvegicus [1], the Effect is on record as -49%.
`CN1CCc2cccc3c2[C@H]1Cc1ccc(O)c(O)c1-3` [APOMORPHINE]: the values for the ED50 in the assay with Rattus norvegicus [4], in the assay with Mus musculus [5] and in the assay listed under Rattus norvegicus [8] were 0.28 mg/kg, 0.36 mg/kg and 0.03 mg/kg, respectively. Also, the ED50 entry in [6] was “inactive”. Further, the Activity in the assay with Rattus norvegicus [7] was determined as 100%.
In the case of `C1=C(c2ccccc2)CC(CN2CCN(c3ccccc3)CC2)CC1` (configuration not stated), the Effect with Rattus norvegicus [1] is reported as -7.5%. The IC50 at D(2) dopamine receptor [2] stood at 424 nM.
On D(2) dopamine receptor [2], `C1=C(c2ccccc2)CC(CN2CCN(c3ncccn3)CC2)CC1` (configuration not stated) yielded an IC50 of 354 nM.
`COc1ccc(C2=CCC[C@@H](CN3CC=C(c4ccccc4)CC3)C2)cc1`: the ED50 with Mus musculus [9] amounted to 5.6 mg/kg. For the same compound, in the assay on Rattus norvegicus [1], the Effect is -47%. In addition, the IC50 on D(2) dopamine receptor [2] worked out at 100 nM.
Take `O=C(CCCN1CCC(O)(c2ccc(Cl)cc2)CC1)c1ccc(F)cc1` [HALOPERIDOL]: the ED50 in assay [10] turned out to be 0.5 mg/kg; in the assay with Rattus norvegicus [11], 0.25 mg/kg; in the assay listed under Mus musculus [12] it was 0.3 mg/kg.
For `C1=C(c2ccccc2)CCCC1CN1CC=C(c2ccccc2)CC1` (configuration not stated), in the assay on Rattus norvegicus [1], the Effect is given as -34%. For the same compound, on D(2) dopamine receptor [2], the IC50 was 420 nM.
In the assay filed under Rattus norvegicus [13], `Clc1ccc(C2=CCC[C@@H](CN3CC=C(c4ccccc4)CC3)C2)cc1` showed an ED50 of 19.9 mg/kg.
For the compound `C1=C(c2ccccc2)CCN(C[C@H]2CCC=C(c3ccccc3)C2)C1`, the Effect in the assay on Rattus norvegicus [1] came to 50%. This compound displayed a 50% effective dose (ED50) in the assay with Rattus norvegicus [14] of 3.8 mg/kg. Further, the IC50 at D(2) dopamine receptor [2] worked out at 113 nM.
Take `Fc1ccc(C2=CCC[C@@H](CN3CC=C(c4ccccc4)CC3)C2)cc1`: the Effect in the assay with Rattus norvegicus [1] is on record as -74%. In addition, the IC50 on D(2) dopamine receptor [2] amounted to 76 nM. This compound also gave an ED50 with Rattus norvegicus [15] of 17.5 mg/kg.
Regarding `C1=C(c2ccccc2)CCN(C[C@@H]2CCC=C(c3ccccc3)C2)C1` [CI-1007], the median effective dose (ED50) in the assay with Mus musculus [16] turned out to be 1.3 mg/kg; with Rattus norvegicus [17], 2.9 mg/kg; with Rattus norvegicus [22], 2.9 mg/kg; in assay [23] it was 0.6 mg/kg. For the same compound, the Effect was -66% in the assay with Rattus norvegicus [1], 3% in the assay with Rattus norvegicus [18] and 0.3% in the assay with Rattus norvegicus [19]. Further, the inhibition constant Ki – broadly, a dissociation constant, usually derived from enzyme kinetics or from competition with a known ligand – at D(2) dopamine receptor [20] is 53 nM; on D(2) dopamine receptor [21], 3.3 nM; on D(3) dopamine receptor, 16.6 nM; at D(2) dopamine receptor [24], 25.5 nM; on D(4) dopamine receptor, 90.9 nM; on D(1A) dopamine receptor, > 10000 nM. In addition, the IC50 at D(2) dopamine receptor [2] stood at 53 nM. The Activity in the assay with Rattus norvegicus [25] stood at 99.
Take `C1=C(c2ccccc2)CCC(CN2CC=C(c3ccccc3)CC2)C1` (configuration not stated): the Effect in the assay on Rattus norvegicus [1] was -32%. Further, in the assay with Mus musculus [26], the 50% effective dose (ED50) came to 12.1 mg/kg. The compound further returned a 50% inhibitory concentration (IC50) on D(2) dopamine receptor [2] of 1000 nM.
Take `Cc1ccc(C2=CCC[C@@H](CN3CC=C(c4ccccc4)CC3)C2)cc1`: the Effect with Rattus norvegicus [1] was -42%. Moreover, the ED50 with Rattus norvegicus [27] came out at 5.8 mg/kg. Moreover, the IC50 at D(2) dopamine receptor [2] was 328 nM.
At D(2) dopamine receptor [2], `FC(F)(F)c1ccc(C2=CCC[C@@H](CN3CC=C(c4ccccc4)CC3)C2)cc1` showed an IC50 of 2550 nM.
Same read-out and setting: the value for `C1=C(c2ccccc2)CC(CN2CC=C(c3cccs3)CC2)CC1` (configuration not stated) was 170 nM.
In the case of `C1=C(c2ccccc2)CCN(C2CCC=C(c3ccccc3)C2)C1` (configuration not stated), the ED50 in the assay filed under Mus musculus [28] is ~30 mg/kg. This compound displayed an IC50 on D(2) dopamine receptor [2] of 9210 nM.
In the same order, the values of `C1=C(c2ccccc2)CCN(CC2CCCC=C2c2ccccc2)C1` (configuration not stated) are > 30 mg/kg and 3940 nM.
Take `C1=C(c2ccccc2)CCN(CC2CCC=C(c3ccccc3)C2)C1` (configuration not stated): in the assay with Rattus norvegicus [1], the Effect is -86%. In the assay with Mus musculus [29], this compound gave a 50% effective dose (ED50) of 1.1 mg/kg. The compound further showed a 50% inhibitory concentration (IC50) at D(2) dopamine receptor [2] of 112 nM.
